Data from the supplement of paper PMC8149375.

Columns and labels:
Conditions in all cases: treatment: drug alone; 5 days
SN12C [1] = assay: minimum viability across doses, drug alone, relative to DMSO (fraction); higher = less growth inhibition
Description: (§1)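 Primary HTS: 8 RCC cell lines treated with 8 doses (up to 10 uM) of each library drug alone for 5 days; viability read by CellTiter-Glo and normalised to DMSO. GI50 was fitted with XLfit (4-parameter), AUC is the area under the dose-response curve, and minimum viability is the lowest fraction of DMSO viability across doses.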

ACHN [2] = assay: as above
Description: as §1

786-O [3] = assay: as above
Description: as §1

769-P [4] = assay: as above
Description: as §1

UO-31 [5] = assay: as above
Description: as §1

TK-10 [6] = assay: as above
Description: as §1

CAKI-1 [7] = assay: as above
Description: as §1

A498 [8] = assay: as above
Description: as §1

SN12C [9] = assay: AUC of dose-response viability curve, drug alone (arbitrary (AUC of normalised viability)); higher = less growth inhibition
Description: as §1

ACHN [10] = assay: as above
Description: as §1

786-O [11] = assay: as above
Description: as §1

769-P [12] = assay: as above
Description: as §1

UO-31 [13] = assay: as above
Description: as §1

TK-10 [14] = assay: as above
Description: as §1

CAKI-1 [15] = assay: as above
Description: as §1

A498 [16] = assay: as above
Description: as §1

SN12C [17] = assay: GI50, drug alone; higher = less potent
Description: as §1

ACHN [18] = assay: GI50, drug alone; higher = less potent
Description: as §1

786-O [19] = assay: GI50, drug alone; higher = less potent
Description: as §1

769-P [20] = assay: GI50, drug alone; higher = less potent
Description: as §1

UO-31 [21] = assay: GI50, drug alone; higher = less potent
Description: as §1

TK-10 [22] = assay: GI50, drug alone; higher = less potent
Description: as §1

CAKI-1 [23] = assay: GI50, drug alone; higher = less potent
Description: as §1

A498 [24] = assay: GI50, drug alone; higher = less potent
Description: as §1

Structure (SMILES) | GI50, drug alone (ACHN [18]) | GI50, drug alone (786-O [19]) | minimum viability across doses (SN12C [1]) | minimum viability across doses (ACHN [2]) | minimum viability across doses (786-O [3]) | minimum viability across doses (769-P [4]) | minimum viability across doses (UO-31 [5]) | minimum viability across doses (TK-10 [6]) | minimum viability across doses (CAKI-1 [7]) | minimum viability across doses (A498 [8]) | AUC of dose-response viability curve (SN12C [9]) | AUC of dose-response viability curve (ACHN [10]) | AUC of dose-response viability curve (786-O [11]) | AUC of dose-response viability curve (769-P [12]) | AUC of dose-response viability curve (UO-31 [13]) | AUC of dose-response viability curve (TK-10 [14]) | AUC of dose-response viability curve (CAKI-1 [15]) | AUC of dose-response viability curve (A498 [16]) | GI50, drug alone (SN12C [17]) | GI50, drug alone (769-P [20]) | GI50, drug alone (UO-31 [21]) | GI50, drug alone (TK-10 [22]) | GI50, drug alone (CAKI-1 [23]) | GI50, drug alone (A498 [24])
CNC(=O)c1ccc(-c2cnc3ncc(Cc4ccc5ncccc5c4)n3n2)cc1F | > 10 µM | > 10 µM | 0.913 | 0.842 | 0.652 | 0.916 | 1.21 | 0.843 | 0.802 | 0.984 | 3.41 | 3.21 | 2.88 | 3.5 | 5.21 | 3.14 | 3.25 | 4.54 | > 10 µM | > 10 µM | > 10 µM | > 10 µM | > 10 µM | > 10 µM
COc1cc(OC)c(/C=C/S(=O)(=O)Cc2ccc(OC)c(NCC(=O)[O][Na])c2)c(OC)c1 | 0.123 µM | 0.0233 µM | 0.124 | 0.102 | 0.00295 | 0.0669 | 0.0069 | 0.273 | 0.119 | 0.154 | 2.01 | 1.7 | 0.88 | 1.49 | 1.46 | 2.13 | 1.63 | 1.91 | 0.216 µM | 0.0821 µM | 0.0855 µM | 0.327 µM | 0.0743 µM | 0.0912 µM
Nc1nc(Nc2ccc(S(N)(=O)=O)cc2)nn1C(=O)c1c(F)cccc1F | 2.4 µM | 0.465 µM | 0.203 | 0.0118 | 0.00276 | 0.0485 | 0.00913 | 0.573 | 0.0615 | 0.559 | 2.99 | 2.85 | 1.8 | 3.08 | 3.19 | 2.77 | 3.13 | 3.39 | 4.89 µM | > 10 µM | 2.8 µM | > 10 µM | 4.58 µM | > 10 µM
Cc1ccccc1-n1c(Cn2cnc3c(N)ncnc32)nc2cccc(C)c2c1=O | > 10 µM | 7.98 µM | 0.814 | 0.813 | 0.434 | 0.856 | 0.821 | 0.758 | 0.717 | 0.955 | 3.12 | 3.17 | 2.46 | 3.25 | 3.41 | 2.93 | 3.12 | 3.88 | > 10 µM | > 10 µM | > 10 µM | > 10 µM | > 10 µM | > 10 µM
Cc1cnc(NC(=O)Nc2cc(Br)c(C)cc2OC[C@@H]2CNCCO2)cn1 | 0.161 µM | 0.342 µM | 0.175 | 0.0243 | 0.00129 | 0.0604 | 0.00586 | 0.156 | 0.145 | 0.0991 | 3.07 | 1.82 | 2 | 2.27 | 3.67 | 2.25 | 2.83 | 3.76 | 4.66 µM | > 10 µM | 0.745 µM | 0.58 µM | 1.39 µM | 3.57 µM

The next lines start with results.

GI50, drug alone (ACHN [18]) | GI50, drug alone (786-O [19]) | Structure (SMILES) | minimum viability across doses (SN12C [1]) | minimum viability across doses (ACHN [2]) | minimum viability across doses (786-O [3]) | minimum viability across doses (769-P [4]) | minimum viability across doses (UO-31 [5]) | minimum viability across doses (TK-10 [6]) | minimum viability across doses (CAKI-1 [7]) | minimum viability across doses (A498 [8]) | AUC of dose-response viability curve (SN12C [9]) | AUC of dose-response viability curve (ACHN [10]) | AUC of dose-response viability curve (786-O [11]) | AUC of dose-response viability curve (769-P [12]) | AUC of dose-response viability curve (UO-31 [13]) | AUC of dose-response viability curve (TK-10 [14]) | AUC of dose-response viability curve (CAKI-1 [15]) | AUC of dose-response viability curve (A498 [16]) | GI50, drug alone (SN12C [17]) | GI50, drug alone (769-P [20]) | GI50, drug alone (UO-31 [21]) | GI50, drug alone (TK-10 [22]) | GI50, drug alone (CAKI-1 [23]) | GI50, drug alone (A498 [24])
2.01 µM | 8.26 µM | c1ccc2c(-c3cnn4cc(-c5ccc(N6CCNCC6)cc5)cnc34)ccnc2c1 | 0.00261 | 0.00139 | 0.0032 | 0.00246 | 0.00507 | 0.00522 | 0.00218 | 0.00414 | 2.88 | 2.68 | 3.55 | 2.86 | 6.11 | 2.64 | 2.96 | 3.76 | 2.8 µM | 2.6 µM | 7.44 µM | 7.73 µM | 1.63 µM | 8.21 µM
4.51 µM | 1.62 µM | NCC(=O)Nc1ccc(-n2nc(C(F)(F)F)cc2-c2ccc3c(ccc4ccccc43)c2)cc1 | 0.00771 | 0.0447 | 0.00641 | 0.0386 | 0.00932 | 0.326 | 0.0096 | 0.0189 | 3.13 | 3.11 | 2.29 | 2.96 | 2.76 | 2.74 | 3.25 | 3.01 | 4.07 µM | 3.77 µM | 0.928 µM | 4.25 µM | 4.52 µM | 3.22 µM
> 10 µM | 6.61 µM | C[C@@H]1CN(CC(=O)Nc2ccc3c(c2)Cc2cccc(-c4cc(=O)cc(N5CCOCC5)o4)c2S3)C[C@H](C)O1 | 0.646 | 0.548 | 0.35 | 0.855 | 1.35 | 0.701 | 0.224 | 0.893 | 3.35 | 3.15 | 3.37 | 3.53 | 6.19 | 3.25 | 2.8 | 4.69 | > 10 µM | > 10 µM | > 10 µM | > 10 µM | 4 µM | > 10 µM
6.82 µM | 3.26 µM | O=c1cc(N2CCOCC2)oc2c(-c3cccc4c3sc3ccccc34)cccc12 | 0.561 | 0.35 | 0.0967 | 0.489 | 0.476 | 0.447 | 0.184 | 0.62 | 3.26 | 3.44 | 2.69 | 3.36 | 3.93 | 3.15 | 2.74 | 3.5 | > 10 µM | 9.84 µM | > 10 µM | 9.09 µM | 2.78 µM | > 10 µM
